In brackets after ≈: the same amount, converted by molar mass.
Tested on: KB cells
Test: Growth Inhibition Action on KB cell (in vitro)
Assay type: cell-based
Settings: Homo sapiens, 72 hours incubation, MTT absorbance, final DMSO 0.5%, read-out: IC50 (concentration of 50% growth inhibition) on KB cells
Method: Experiment: Growth Inhibition Action on KB cell (in vitro)
1×10^3 of KB cells/0.1 ml of a cell suspension in MEM medium containing 10% fetal bovine serum was placed in each well of a plate with 96 flat bottom wells, and incubated for 24 hours. This was dissolved in dimethylsulfoxide, and 100 μl of a solution (final concentration of dimethylsulfoxide: 0.5%) of a test compound diluted with the medium was added thereto, followed by incubation for 72 hours. After incubation, 4,5-dimethylthiazol-2-yl-2,5-diphenyltetrazolium bromide reagent (a color reagent) was added, and the mixture was further incubated for 4 hours.
100 μl of the medium (final concentration of dimethylsulfoxide:0.5%) was added as a control, and incubated in a similar manner. After incubation, the medium was removed, and the cells were dissolved in 150 μl of dimethylsulfoxide and the absorbance was determined. The ratio of the absorbance of the group treated with the test compound to that of the control group was determined, and the concentration of 50% growth inhibition (IC50) was calculated.

## CC(C)C[C@@H](O)[C@@]1([C@H]2CC[C@H]3[C@@H]4CC[C@H]5CC(=O)CC[C@]5(C)[C@H]4C[C@@H](O)[C@]23C)CO1 [Compound (12a)]
  IC50: 0.0965 µg/mL (≈ 0.231 µM)

From patent publication US5712263A, “Steroid derivatives” (Taisho Pharmaceutical Co., Ltd., priority 1993, dated 1998)
